Reference: ChEMBL document CHEMBL4024706 (Eur J Med Chem, 2017)

How the values were obtained:
[1] = target: Tyrosine-protein kinase BTK (Homo sapiens, UniProt Q06187); assay: Inhibition of BTK auto-phosphorylation at Y223 in human Pfeiffer cells measured after 4 hrs by chemiluminescent assay
[2] = tested on: Tyrosine-protein kinase ABL1 (Homo sapiens), P00519 [Q252H]; assay: Inhibition of human phosphorylated ABL1 Q252H mutant expressed in mammalian expression system assessed as residual activity at 1 uM by Kinomescan method relative to control
[3] = target: Calcium/calmodulin-dependent protein kinase kinase 2 (Homo sapiens) (UniProt Q96RR4); assay: Inhibition of wild-type human partial length CAMKK2 (D65 to V471 residues) expressed in bacterial expression system assessed as residual activity at 1 uM by Kinomescan method relative to control
Sequence of Calcium/calmodulin-dependent protein kinase kinase 2 (Homo sapiens) (Q96RR4 2-588 limits assumed): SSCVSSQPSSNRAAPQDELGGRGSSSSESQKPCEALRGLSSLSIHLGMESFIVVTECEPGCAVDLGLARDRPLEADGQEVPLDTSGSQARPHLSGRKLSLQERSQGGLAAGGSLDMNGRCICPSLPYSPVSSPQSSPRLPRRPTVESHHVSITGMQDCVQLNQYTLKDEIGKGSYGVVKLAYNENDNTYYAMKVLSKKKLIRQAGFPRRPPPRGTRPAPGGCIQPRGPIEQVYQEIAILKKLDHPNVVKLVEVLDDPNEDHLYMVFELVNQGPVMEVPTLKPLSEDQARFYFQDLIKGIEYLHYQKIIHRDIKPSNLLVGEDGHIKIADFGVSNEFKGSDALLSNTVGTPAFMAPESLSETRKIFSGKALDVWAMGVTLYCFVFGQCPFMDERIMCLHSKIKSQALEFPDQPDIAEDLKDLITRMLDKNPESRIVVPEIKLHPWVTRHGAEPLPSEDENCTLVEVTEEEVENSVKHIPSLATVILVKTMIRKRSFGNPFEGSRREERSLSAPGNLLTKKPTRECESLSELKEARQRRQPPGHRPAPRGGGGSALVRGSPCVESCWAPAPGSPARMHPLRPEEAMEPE

[4] = target: Dual specificity protein kinase CLK2 (Homo sapiens) (UniProt P49760); assay: Inhibition of wild-type human partial length CLK2 (D144 to R498 residues) expressed in bacterial expression system assessed as residual activity at 1 uM by Kinomescan method relative to control
Sequence of Dual specificity protein kinase CLK2 (Homo sapiens) (P49760 whole entry, looked up, the tested form may be a part, canonical isoform): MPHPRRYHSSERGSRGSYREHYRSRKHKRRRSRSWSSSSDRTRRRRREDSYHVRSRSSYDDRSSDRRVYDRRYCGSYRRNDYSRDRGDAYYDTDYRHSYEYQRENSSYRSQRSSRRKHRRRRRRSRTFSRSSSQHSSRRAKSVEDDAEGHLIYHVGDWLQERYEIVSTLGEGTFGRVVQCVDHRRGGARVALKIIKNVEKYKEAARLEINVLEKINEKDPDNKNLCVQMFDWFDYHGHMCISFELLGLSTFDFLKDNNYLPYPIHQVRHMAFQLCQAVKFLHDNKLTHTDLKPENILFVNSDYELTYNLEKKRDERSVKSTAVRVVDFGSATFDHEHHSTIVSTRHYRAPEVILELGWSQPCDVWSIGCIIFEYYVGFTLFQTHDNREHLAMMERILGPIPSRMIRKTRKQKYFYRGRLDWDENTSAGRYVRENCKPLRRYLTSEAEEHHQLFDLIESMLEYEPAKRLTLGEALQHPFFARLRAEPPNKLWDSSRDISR

[5] = target: Casein kinase I isoform gamma-1 (Homo sapiens) (UniProt Q9HCP0); assay: Inhibition of wild-type human partial length CSNK1G1 (T15 to S353 residues) expressed in bacterial expression system assessed as residual activity at 1 uM by Kinomescan method relative to control
[6] = target: Serine/threonine-protein kinase MRCK gamma (Homo sapiens) (UniProt Q6DT37); assay: Inhibition of wild-type human partial length DMPK2 (S46 to S408 residues) expressed in bacterial expression system assessed as residual activity at 1 uM by Kinomescan method relative to control
[7] = target: Dual specificity tyrosine-phosphorylation-regulated kinase 1B (Homo sapiens) (UniProt Q9Y463); assay: Inhibition of wild-type human full length DYRK1B (M1 to S629 residues) expressed in bacterial expression system assessed as residual activity at 1 uM by Kinomescan method relative to control
[8] = tested on: Epidermal growth factor receptor (Homo sapiens), P00533 [L861Q]; assay: Inhibition of human partial length EGFR L861Q mutant (R669 to V1011 residues) expressed in bacterial expression system assessed as residual activity at 1 uM by Kinomescan method relative to control
[9] = target: Ephrin type-B receptor 6 (Homo sapiens) (UniProt O15197); assay: Inhibition of wild-type human partial length EPHB6 (Q634 to P948 residues) expressed in mammalian expression system assessed as residual activity at 1 uM by Kinomescan method relative to control
Sequence of Ephrin type-B receptor 6 (Homo sapiens) (O15197 whole entry, the tested form may be a part): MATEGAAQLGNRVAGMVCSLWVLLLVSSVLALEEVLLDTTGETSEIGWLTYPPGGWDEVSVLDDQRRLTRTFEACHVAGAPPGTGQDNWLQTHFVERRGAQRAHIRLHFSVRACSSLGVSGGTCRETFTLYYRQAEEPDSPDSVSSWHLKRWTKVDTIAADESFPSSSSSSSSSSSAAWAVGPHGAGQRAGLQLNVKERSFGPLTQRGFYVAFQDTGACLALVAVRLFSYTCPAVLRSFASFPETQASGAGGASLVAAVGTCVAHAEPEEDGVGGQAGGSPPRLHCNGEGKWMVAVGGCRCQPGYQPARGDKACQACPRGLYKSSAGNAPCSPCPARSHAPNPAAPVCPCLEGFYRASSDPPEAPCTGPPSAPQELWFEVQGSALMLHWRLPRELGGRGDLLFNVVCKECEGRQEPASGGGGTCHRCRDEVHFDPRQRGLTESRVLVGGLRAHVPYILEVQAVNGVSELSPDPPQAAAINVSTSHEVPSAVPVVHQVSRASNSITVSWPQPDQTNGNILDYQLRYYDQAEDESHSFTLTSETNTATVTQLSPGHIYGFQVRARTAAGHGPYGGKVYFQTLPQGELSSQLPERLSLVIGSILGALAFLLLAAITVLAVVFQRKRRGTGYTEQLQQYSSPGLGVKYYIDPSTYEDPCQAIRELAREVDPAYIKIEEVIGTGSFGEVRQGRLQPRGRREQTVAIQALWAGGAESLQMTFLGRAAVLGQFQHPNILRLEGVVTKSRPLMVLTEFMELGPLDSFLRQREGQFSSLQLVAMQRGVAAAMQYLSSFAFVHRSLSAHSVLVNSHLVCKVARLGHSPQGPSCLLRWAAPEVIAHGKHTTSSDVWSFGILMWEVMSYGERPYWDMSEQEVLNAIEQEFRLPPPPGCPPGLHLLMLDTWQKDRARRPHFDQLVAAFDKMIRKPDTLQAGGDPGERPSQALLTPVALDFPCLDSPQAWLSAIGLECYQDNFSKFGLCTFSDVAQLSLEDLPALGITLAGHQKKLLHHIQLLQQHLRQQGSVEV

[10] = target: Tyrosine-protein kinase Fgr (Homo sapiens) (UniProt P09769); assay: Inhibition of wild-type human partial length FGR (L233 to T529 residues) expressed in bacterial expression system assessed as residual activity at 1 uM by Kinomescan method relative to control
Homo sapiens = species: Homo sapiens; assay: Inhibition of human partial length FLT3 ITD/F691L double mutant expressed in bacterial expression system assessed as residual activity at 1 uM by Kinomescan method relative to control
[11] = target: Tyrosine-protein kinase ITK/TSK (Homo sapiens) (UniProt Q08881); assay: Inhibition of wild-type human partial length ITK (R335 to L620 residues) expressed in bacterial expression system assessed as residual activity at 1 uM by Kinomescan method relative to control
[12] = target: Tyrosine-protein kinase JAK1 (Homo sapiens) (UniProt P23458); assay: Inhibition of wild-type human partial length JAK1 JH2 pseudokinase domain (R537 to D855 residues) expressed in mammalian expression system assessed as residual activity at 1 uM by Kinomescan method relative to control
[13] = target: Serine/threonine-protein kinase LATS1 (Homo sapiens) (UniProt O95835); assay: Inhibition of wild-type human partial length LATS1 (Q678 to V1130 residues) expressed in bacterial expression system assessed as residual activity at 1 uM by Kinomescan method relative to control
[14] = target: Dual specificity mitogen-activated protein kinase kinase 1 (Homo sapiens) (UniProt Q02750); assay: Inhibition of wild-type human full length MEK1 (M1 to V393 residues) expressed in mammalian expression system assessed as residual activity at 1 uM by Kinomescan method relative to control
Sequence of Dual specificity mitogen-activated protein kinase kinase 1 (Homo sapiens) (Q02750 whole entry, the tested form may be a part): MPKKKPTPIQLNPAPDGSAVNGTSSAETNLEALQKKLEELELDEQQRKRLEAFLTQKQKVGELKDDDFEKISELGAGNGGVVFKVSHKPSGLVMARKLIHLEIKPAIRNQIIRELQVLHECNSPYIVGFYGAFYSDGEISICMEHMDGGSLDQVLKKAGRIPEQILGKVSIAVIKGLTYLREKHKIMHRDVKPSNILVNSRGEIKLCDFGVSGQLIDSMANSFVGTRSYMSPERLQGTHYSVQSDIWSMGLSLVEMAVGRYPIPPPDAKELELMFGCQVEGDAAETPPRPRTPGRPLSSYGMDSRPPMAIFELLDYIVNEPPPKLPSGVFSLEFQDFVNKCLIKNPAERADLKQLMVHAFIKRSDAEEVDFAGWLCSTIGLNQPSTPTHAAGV

[15] = target: Myosin light chain kinase, smooth muscle (Homo sapiens) (UniProt Q15746); assay: Inhibition of wild-type human full length MYLK (M854 to E1845 residues) expressed in mammalian expression system assessed as residual activity at 1 uM by Kinomescan method relative to control
[16] = target: Serine/threonine-protein kinase NLK (Homo sapiens) (UniProt Q9UBE8); assay: Inhibition of wild-type human full length NLK (M13 to E527 residues) expressed in bacterial expression system assessed as residual activity at 1 uM by Kinomescan method relative to control
Sequence of Serine/threonine-protein kinase NLK (Homo sapiens) (Q9UBE8 whole entry, the tested form may be a part): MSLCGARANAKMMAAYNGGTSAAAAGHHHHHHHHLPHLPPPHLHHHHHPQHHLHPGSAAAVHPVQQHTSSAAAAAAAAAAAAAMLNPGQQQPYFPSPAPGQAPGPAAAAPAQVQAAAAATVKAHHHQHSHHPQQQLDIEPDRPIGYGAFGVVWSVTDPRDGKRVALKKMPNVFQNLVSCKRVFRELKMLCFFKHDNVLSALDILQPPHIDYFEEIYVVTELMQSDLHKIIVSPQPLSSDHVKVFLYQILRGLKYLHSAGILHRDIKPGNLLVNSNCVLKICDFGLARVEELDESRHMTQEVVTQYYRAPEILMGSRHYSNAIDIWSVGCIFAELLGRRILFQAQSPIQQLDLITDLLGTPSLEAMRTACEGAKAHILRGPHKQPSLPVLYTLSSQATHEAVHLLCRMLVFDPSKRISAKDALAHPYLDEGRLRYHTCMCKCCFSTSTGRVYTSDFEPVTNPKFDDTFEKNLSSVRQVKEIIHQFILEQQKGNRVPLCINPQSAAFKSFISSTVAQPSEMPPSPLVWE

[17] = target: Mitogen-activated protein kinase 14 (Homo sapiens) (UniProt Q16539); assay: Inhibition of wild-type human full length p38-alpha (M1 to S360 residues) expressed in bacterial expression system assessed as residual activity at 1 uM by Kinomescan method relative to control
Sequence of Mitogen-activated protein kinase 14 (Homo sapiens) (Q16539 whole entry, the tested form may be a part, canonical isoform): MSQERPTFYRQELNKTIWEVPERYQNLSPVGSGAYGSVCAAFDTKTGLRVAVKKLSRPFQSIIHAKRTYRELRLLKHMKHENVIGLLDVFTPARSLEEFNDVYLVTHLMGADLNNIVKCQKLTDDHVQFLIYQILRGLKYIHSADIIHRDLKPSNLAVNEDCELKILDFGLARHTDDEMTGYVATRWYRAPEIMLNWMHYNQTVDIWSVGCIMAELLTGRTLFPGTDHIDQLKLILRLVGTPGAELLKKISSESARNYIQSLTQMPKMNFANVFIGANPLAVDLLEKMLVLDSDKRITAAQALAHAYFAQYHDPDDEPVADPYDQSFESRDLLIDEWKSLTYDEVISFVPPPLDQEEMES

[18] = target: Phosphatidylinositol 4,5-bisphosphate 3-kinase catalytic subunit gamma isoform (Homo sapiens) (UniProt P48736); assay: Inhibition of wild-type human partial length PIK3CG (S144 to A1102 residues) expressed in mammalian expression system assessed as residual activity at 1 uM by Kinomescan method relative to control
[19] = target: Phosphatidylinositol 5-phosphate 4-kinase type-2 gamma (Homo sapiens) (UniProt Q8TBX8); assay: Inhibition of wild-type human partial length PIP5K2C (M1 to A421 residues) expressed in mammalian expression system assessed as residual activity at 1 uM by Kinomescan method relative to control
Sequence of Phosphatidylinositol 5-phosphate 4-kinase type-2 gamma (Homo sapiens) (Q8TBX8 whole entry, the tested form may be a part): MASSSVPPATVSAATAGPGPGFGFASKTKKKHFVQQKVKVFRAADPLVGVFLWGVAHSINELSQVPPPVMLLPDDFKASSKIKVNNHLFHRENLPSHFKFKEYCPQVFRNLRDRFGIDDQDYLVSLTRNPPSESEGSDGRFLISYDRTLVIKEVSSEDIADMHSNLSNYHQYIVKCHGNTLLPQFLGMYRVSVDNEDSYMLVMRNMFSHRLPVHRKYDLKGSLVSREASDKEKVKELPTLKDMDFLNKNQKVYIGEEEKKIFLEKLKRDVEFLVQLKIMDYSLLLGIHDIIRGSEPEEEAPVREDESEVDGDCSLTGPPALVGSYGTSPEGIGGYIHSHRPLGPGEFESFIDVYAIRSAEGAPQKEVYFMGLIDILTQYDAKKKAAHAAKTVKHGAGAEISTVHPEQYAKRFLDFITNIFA

[20] = target: Protein-tyrosine kinase 2-beta (Homo sapiens) (UniProt Q14289); assay: Inhibition of wild-type human full length PYK2 (M1 to E967 residues) expressed in bacterial expression system assessed as residual activity at 1 uM by Kinomescan method relative to control
[21] = target: Ribosomal protein S6 kinase alpha-3 (Homo sapiens) (UniProt P51812); assay: Inhibition of wild-type human partial length C-terminal RSK2 kinase domain 2 (V402 to S715 residues) expressed in mammalian expression system assessed as residual activity at 1 uM by Kinomescan method relative to control
[22] = target: SNF-related serine/threonine-protein kinase (Homo sapiens) (UniProt Q9NRH2); assay: Inhibition of wild-type human partial length SNRK (M1 to E339 residues) expressed in mammalian expression system assessed as residual activity at 1 uM by Kinomescan method relative to control
[23] = target: SRSF protein kinase 2 (Homo sapiens) (UniProt P78362); assay: Inhibition of wild-type human full length SRPK2 (M1 to S686 residues) expressed in bacterial expression system assessed as residual activity at 1 uM by Kinomescan method relative to control
[24] = target: Serine/threonine-protein kinase 33 (Homo sapiens) (UniProt Q9BYT3); assay: Inhibition of wild-type human full length STK33 (M1 to L514 residues) expressed in bacterial expression system assessed as residual activity at 1 uM by Kinomescan method relative to control
Sequence of Serine/threonine-protein kinase 33 (Homo sapiens) (Q9BYT3 whole entry, looked up, the tested form may be a part): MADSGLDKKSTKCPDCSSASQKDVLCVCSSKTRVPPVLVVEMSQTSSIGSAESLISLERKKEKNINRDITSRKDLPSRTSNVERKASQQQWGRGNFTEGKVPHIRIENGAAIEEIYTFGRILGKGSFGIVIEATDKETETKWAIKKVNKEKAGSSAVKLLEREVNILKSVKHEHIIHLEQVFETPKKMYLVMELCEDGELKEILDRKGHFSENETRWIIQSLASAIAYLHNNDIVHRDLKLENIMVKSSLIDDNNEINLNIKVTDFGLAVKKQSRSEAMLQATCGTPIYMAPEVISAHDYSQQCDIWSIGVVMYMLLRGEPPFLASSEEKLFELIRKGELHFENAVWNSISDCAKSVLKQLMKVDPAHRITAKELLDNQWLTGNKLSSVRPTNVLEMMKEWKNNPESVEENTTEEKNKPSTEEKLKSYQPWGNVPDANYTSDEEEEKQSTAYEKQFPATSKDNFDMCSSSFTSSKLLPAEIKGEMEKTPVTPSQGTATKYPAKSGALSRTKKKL

Sequence of Tyrosine-protein kinase BTK (Q06187 whole entry): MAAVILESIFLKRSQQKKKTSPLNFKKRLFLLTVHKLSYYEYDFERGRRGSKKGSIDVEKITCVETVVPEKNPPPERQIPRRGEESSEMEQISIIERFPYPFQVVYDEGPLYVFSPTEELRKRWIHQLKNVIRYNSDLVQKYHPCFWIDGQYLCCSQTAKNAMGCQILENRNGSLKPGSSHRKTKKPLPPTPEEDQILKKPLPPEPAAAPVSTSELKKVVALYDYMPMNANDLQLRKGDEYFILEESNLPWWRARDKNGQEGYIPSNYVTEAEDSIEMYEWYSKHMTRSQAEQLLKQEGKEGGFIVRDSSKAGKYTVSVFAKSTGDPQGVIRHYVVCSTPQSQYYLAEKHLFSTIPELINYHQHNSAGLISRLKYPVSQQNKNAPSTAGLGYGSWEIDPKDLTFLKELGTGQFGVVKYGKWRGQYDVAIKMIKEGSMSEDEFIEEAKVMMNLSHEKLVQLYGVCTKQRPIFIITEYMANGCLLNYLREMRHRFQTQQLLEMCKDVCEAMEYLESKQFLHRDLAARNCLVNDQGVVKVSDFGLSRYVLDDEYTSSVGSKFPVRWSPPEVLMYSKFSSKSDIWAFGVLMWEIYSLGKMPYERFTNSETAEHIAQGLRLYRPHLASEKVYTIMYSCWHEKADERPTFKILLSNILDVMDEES

In the case of `C=CC(=O)Nc1cc(Nc2cc(-c3cccc(NC(=O)c4ccc(C(C)(C)C)cc4)c3C)cn(C)c2=O)ccc1C(=O)N1CCOCC1`, the EC50 [1] is reported as under 30 nM, the Activity [2] is reported as 100% and the Activity [3] is reported as 100%. For the same compound, the Activity [4] was 100%, the Activity [5] was 98% and the Activity [6] was 100%. For the same compound, the Activity [7] was 74%, the Activity [8] was 100% and the Activity [9] was 100%. It also gave an Activity [10] of 77%, an Activity (Homo sapiens) of 87% and an Activity [11] of 100%. The Activity [12] was 86%, the Activity [13] was 74% and the Activity [14] was 100%. For the same compound, the Activity [15] was 100%, the Activity [16] was 63% and the Activity [17] was 100%. The Activity [18] was 100%, the Activity [19] was 97% and the Activity [20] was 100%. For the same compound, the Activity [21] was 96%, the Activity [22] was 80% and the Activity [23] was 94%. For the same compound, the Activity [24] was 100%.
